From patent US20220089575A1, “FARNESOID X RECEPTOR AGONISTS AND USES THEREOF” (Metacrine, Inc., priority 2017, published 2022)

Target: T1, hFXR (Homo sapiens, UniProt Q96RI1)
T1 construct: expressed in transfected cells; host or cells: CV-1 cells
T1 sequence (Q96RI1 1-486): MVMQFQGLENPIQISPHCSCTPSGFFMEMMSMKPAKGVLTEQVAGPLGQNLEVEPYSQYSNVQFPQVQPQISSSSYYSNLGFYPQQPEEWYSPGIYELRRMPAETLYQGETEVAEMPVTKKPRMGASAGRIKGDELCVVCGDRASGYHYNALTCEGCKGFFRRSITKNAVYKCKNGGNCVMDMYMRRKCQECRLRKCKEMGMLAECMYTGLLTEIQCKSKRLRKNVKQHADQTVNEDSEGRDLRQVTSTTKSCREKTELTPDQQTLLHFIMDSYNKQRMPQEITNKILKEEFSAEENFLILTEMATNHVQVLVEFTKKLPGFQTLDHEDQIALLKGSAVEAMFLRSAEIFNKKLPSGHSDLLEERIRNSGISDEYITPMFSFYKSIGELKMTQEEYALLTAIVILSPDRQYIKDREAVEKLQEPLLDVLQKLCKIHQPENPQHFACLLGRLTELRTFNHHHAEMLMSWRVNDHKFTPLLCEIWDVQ
T1 sequence (P19793 1-462 partner): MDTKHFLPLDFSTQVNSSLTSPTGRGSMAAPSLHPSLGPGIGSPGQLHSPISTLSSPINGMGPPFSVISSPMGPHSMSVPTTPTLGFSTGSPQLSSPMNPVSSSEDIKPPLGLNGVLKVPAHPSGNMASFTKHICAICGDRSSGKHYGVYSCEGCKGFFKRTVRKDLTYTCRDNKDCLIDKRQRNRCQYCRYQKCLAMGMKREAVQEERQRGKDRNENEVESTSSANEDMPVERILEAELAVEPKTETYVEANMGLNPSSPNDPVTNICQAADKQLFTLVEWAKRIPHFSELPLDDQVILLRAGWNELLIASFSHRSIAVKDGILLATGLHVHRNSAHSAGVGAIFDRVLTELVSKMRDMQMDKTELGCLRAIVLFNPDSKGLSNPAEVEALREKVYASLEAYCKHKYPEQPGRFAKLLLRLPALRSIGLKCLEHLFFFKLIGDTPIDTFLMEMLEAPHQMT
Experiment: In Vitro FXR Assay (TK): TK-ECRE-luc reporter in transfected CV-1 cells
Type: cell-based
Conditions: 18 hrs, luminescence, maximum efficacy of <25% of the Fexarmine control classified as '+'
In short: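 Reporter transactivation by hFXR was measured in CV-1 cells carrying hRXR and a TK-ECRE-luc construct, with compound treatment for 18 h before lysis and luminescence detection.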

EC50, ≤ 250 nM:
COc1ccc([C@H]2CC[C@H](CN(c3cc(-c4cnn(C(C)C)c4)ccn3)C(=O)[C@H]3CC[C@H](OC(=O)N(C)C)CC3)CC2)cc1C#N [Compound 7.45, trans-4-(((trans-4-(3-Cyano-4-methoxyphenyl)cyclohexyl)methyl)(4-(1-isopropyl-1H-pyrazol-4-yl)pyridin-2-yl)carbamoyl)cyclohexyl dimethylcarbamate]
COc1ccc([C@H]2CC[C@H](CN(c3cc(-c4cnn(C(C)C)c4)ccn3)C(=O)[C@H]3CC[C@H](OC(=O)N4CCC4)CC3)CC2)cc1C#N [Compound 7.46, trans-4-(((trans-4-(3-Cyano-4-methoxyphenyl)cyclohexyl)methyl)(4-(1-isopropyl-1H-pyrazol-4-yl)pyridin-2-yl)carbamoyl)cyclohexyl azetidine-1-carboxylate]
CCC1CN(C(=O)O[C@H]2CC[C@H](C(=O)N(C[C@H]3CC[C@H](c4ccc(OC)c(C#N)c4)CC3)c3cc(-c4cnn(C(C)C)c4)ccn3)CC2)C1 [Compound 7.47, trans-4-(((trans-4-(3-Cyano-4-methoxyphenyl)cyclohexyl)methyl)(4-(1-isopropyl-1H-pyrazol-4-yl)pyridin-2-yl)carbamoyl)cyclohexyl 3-ethylazetidine-1-carboxylate]
COc1ccc([C@H]2CC[C@H](CN(c3cc(-c4cnn(C(C)C)c4)ccn3)C(=O)[C@H]3CC[C@H](OC(=O)N4CC(OC)C4)CC3)CC2)cc1C#N [Compound 7.48, trans-4-(((trans-4-(3-Cyano-4-methoxyphenyl)cyclohexyl)methyl)(4-(1-isopropyl-1H-pyrazol-4-yl)pyridin-2-yl)carbamoyl)cyclohexyl 3-methoxyazetidine-1-carboxylate]
COc1ccc([C@H]2CC[C@H](CN(c3cc(-c4cnn(C(C)C)c4)ccn3)C(=O)[C@H]3CC[C@H](OC(=O)N4CC(OC(C)C)C4)CC3)CC2)cc1C#N [Compound 7.49, trans-4-(((trans-4-(3-Cyano-4-methoxyphenyl)cyclohexyl)methyl)(4-(1-isopropyl-1H-pyrazol-4-yl)pyridin-2-yl)carbamoyl)cyclohexyl 3-isopropoxyazetidine-1-carboxylate]
COc1ccc([C@H]2CC[C@H](CN(c3cc(-c4cnn(C(C)C)c4)ccn3)C(=O)[C@H]3CC[C@H](OC(=O)N4CC(N(C)C)C4)CC3)CC2)cc1C#N [Compound 7.50, trans-4-(((trans-4-(3-Cyano-4-methoxyphenyl)cyclohexyl)methyl)(4-(1-isopropyl-1H-pyrazol-4-yl)pyridin-2-yl)carbamoyl)cyclohexyl 3-(dimethylamino)azetidine-1-carboxylate]
COc1ccc([C@H]2CC[C@H](CN(c3cc(-c4cnn(C(C)C)c4)ccn3)C(=O)[C@H]3CC[C@H](OC(=O)N4CC(CO)C4)CC3)CC2)cc1C#N [Compound 7.51, trans-4-(((trans-4-(3-Cyano-4-methoxyphenyl)cyclohexyl)methyl)(4-(1-isopropyl-1H-pyrazol-4-yl)pyridin-2-yl)carbamoyl)cyclohexyl 3-(hydroxymethyl)azetidine-1-carboxylate]
COc1ccc([C@H]2CC[C@H](CN(c3cccc(-c4cnn(C(C)C)c4)c3)C(=O)[C@H]3CC[C@H](OC(=O)N4CC(OC)C4)CC3)CC2)nc1C [Compound 7.52, trans-4-((3-(1-Isopropyl-1H-pyrazol-4-yl)phenyl)((trans-4-(5-methoxy-6-methylpyridin-2-yl)cyclohexyl)methyl)carbamoyl)cyclohexyl 3-methoxyazetidine-1-carboxylate]
COc1ccc([C@H]2CC[C@H](CN(c3cccc(-c4cnn(C(C)C)c4)c3)C(=O)[C@H]3CC[C@H](OC(=O)N4CC(N(C)C)C4)CC3)CC2)nc1C [Compound 7.53, trans-4-((3-(1-Isopropyl-1H-pyrazol-4-yl)phenyl)((trans-4-(5-methoxy-6-methylpyridin-2-yl)cyclohexyl)methyl)carbamoyl)cyclohexyl 3-(dimethylamino)azetidine-1-carboxylate]
CCC1CN(C(=O)O[C@H]2CC[C@H](C(=O)N(C[C@H]3CC[C@H](c4ccc(OC)c(C)n4)CC3)c3cc(-c4cnn(C(C)C)c4)ccn3)CC2)C1 [Compound 7.54, trans-4-((4-(1-Isopropyl-1H-pyrazol-4-yl)pyridin-2-yl)((trans-4-(5-methoxy-6-methylpyridin-2-yl)cyclohexyl)methyl)carbamoyl)cyclohexyl 3-ethylazetidine-1-carboxylate]
COc1ccc([C@H]2CC[C@H](CN(c3cc(-c4cnn(C(C)C)c4)ccn3)C(=O)[C@H]3CC[C@H](OC(=O)N4CC(OC)C4)CC3)CC2)nc1C [Compound 7.55, trans-4-((4-(1-Isopropyl-1H-pyrazol-4-yl)pyridin-2-yl)((trans-4-(5-methoxy-6-methylpyridin-2-yl)cyclohexyl)methyl)carbamoyl)cyclohexyl 3-methoxyazetidine-1-carboxylate]
COc1ccc([C@H]2CC[C@H](CN(c3cc(-c4cnn(C(C)C)c4)ccn3)C(=O)[C@H]3CC[C@H](OC(=O)N4CC(OC(C)C)C4)CC3)CC2)nc1C [Compound 7.56, trans-4-((4-(1-Isopropyl-1H-pyrazol-4-yl)pyridin-2-yl)((trans-4-(5-methoxy-6-methylpyridin-2-yl)cyclohexyl)methyl)carbamoyl)cyclohexyl 3-isopropoxyazetidine-1-carboxylate]
COc1ccc([C@H]2CC[C@H](CN(c3cc(-c4cnn(C(C)C)c4)ccn3)C(=O)[C@H]3CC[C@H](OC(=O)N4CC(C(C)C)C4)CC3)CC2)nc1C [Compound 7.57, trans-4-((4-(1-Isopropyl-1H-pyrazol-4-yl)pyridin-2-yl)((trans-4-(5-methoxy-6-methylpyridin-2-yl)cyclohexyl)methyl)carbamoyl)cyclohexyl 3-isopropylazetidine-1-carboxylate]
COc1ccc([C@H]2CC[C@H](CN(c3cc(-c4cnn(C(C)C)c4)ccn3)C(=O)[C@H]3CC[C@H](OC(=O)N4CC(N(C)C)C4)CC3)CC2)nc1C [Compound 7.58, trans-4-((4-(1-Isopropyl-1H-pyrazol-4-yl)pyridin-2-yl)((trans-4-(5-methoxy-6-methylpyridin-2-yl)cyclohexyl)methyl)carbamoyl)cyclohexyl 3-(dimethylamino)azetidine-1-carboxylate]
COc1ccc([C@H]2CC[C@H](CN(c3cc(-c4cnn(C(C)C)c4)ccn3)C(=O)[C@H]3CC[C@H](OC(=O)N4CC(CO)C4)CC3)CC2)nc1C [Compound 7.59, trans-4-((4-(1-Isopropyl-1H-pyrazol-4-yl)pyridin-2-yl)((trans-4-(5-methoxy-6-methylpyridin-2-yl)cyclohexyl)methyl)carbamoyl)cyclohexyl 3-(hydroxymethyl)azetidine-1-carboxylate]
CCC1CN(C(=O)O[C@H]2CC[C@H](C(=O)N(C[C@H]3CC[C@H](c4ccc(OC)c(C)n4)CC3)c3cccc(-c4cnn(C(C)C)c4)c3)CC2)C1 [Compound 7.60, trans-4-((3-(1-Isopropyl-1H-pyrazol-4-yl)phenyl)((trans-4-(5-methoxy-6-methylpyridin-2-yl)cyclohexyl)methyl)carbamoyl)cyclohexyl 3-ethylazetidine-1-carboxylate]
COc1ccc([C@H]2CC[C@H](CN(c3cccc(-c4cnn(C(C)C)c4)c3)C(=O)[C@H]3CC[C@H](OC(=O)N4CC(CO)C4)CC3)CC2)nc1C [Compound 7.61, trans-4-((3-(1-Isopropyl-1H-pyrazol-4-yl)phenyl)((trans-4-(5-methoxy-6-methylpyridin-2-yl)cyclohexyl)methyl)carbamoyl)cyclohexyl 3-(hydroxymethyl)azetidine-1-carboxylate]
COc1ccc([C@H]2CC[C@H](CN(c3cccc(-c4coc(C5CC5)n4)c3)C(=O)[C@H]3CC[C@H](OC(=O)N4CC(O)C4)CC3)CC2)cc1C [Compound 7.62, trans-4-((3-(2-Cyclopropyloxazol-4-yl)phenyl)((trans-4-(4-methoxy-3-methylphenyl)cyclohexyl)methyl)carbamoyl)cyclohexyl 3-hydroxyazetidine-1-carboxylate]
